# Results: US10183032B2, “Methods for treating bacterial infection” (Ball State Innovation Corporation, priority 2012, dated 2019)
# Read-outs that look alike come from different tables or passages of the source.
# Assays:
# [1] = test system: Human umbilical vein endothelial cells; test: Cytotoxicity by propidium iodide exclusion, HUVEC; type: cell-based
# RAW 264.7 cells = test: Cytotoxicity by propidium iodide, RAW 264.7 cells; type: cell-based; settings: RAW 264.7 pretreated 18-20 h
# Streptococcus pyogenes = Streptococcus pyogenes invasion assay in HUVEC, CFU recovery; type: cell-based; settings: for inhibition at 10 µM: Streptococcus pyogenes, HUVEC
# Procedure: FIG. 12 is a graph illustrating that ML 141 inhibition of cell invasion by S. pyogenes is reversible. HUVEC were pretreated with ML 141 (10 μM) or with dimethyl sulfoxide (DMSO) as the vehicle control (1 h). Following pretreatment, ML 141-containing media was removed from the washout samples and replaced with DMSO-containing media for 60 min prior to incubation with Streptococcus pyogenes at a multiplicity of infection of 30 (2 h). Extracellular bacteria were removed by gentamicin, an antimicrobial with limited mammalian membrane permeability. Intracellular bacteria were released from HUVEC into the medium by incubation in cold water (5 min). Serial dilutions were incubated (16 h) on Todd Hewitt broth/blood agar plates and colonies enumerated to determine colony forming units (CFU)/ml (*P<0.05 by one-way ANOVA followed by Student-Newman-Keuls post-hoc analysis; n=4/treatment).
# Human umbilical vein endothelial cells (HUVEC, EMD Millipore, Billerica, Mass., SCCE001) were cultured in EndoGRO-LS complete media (EMD Millipore, SCME001) and maintained in 75 cm^2 vented cap flasks (Thermo-Fisher Scientific, Pittsburgh, Pa., 10-126-37) at 37° C./5% CO2. Streptococcus pyogenes (90-226, M1+) was cultured in Todd Hewitt broth (THB, Thermo-Fisher Scientific, DF0492-17-6) and grown at 37° C. with no shaking.
# Two days prior to infection, S. pyogenes were cultured in 5 ml THB 18-24 h from a single colony grown on THB/blood (Cleveland Scientific, Bath, Ohio, SBCIT-100) agar (Moorhead & Company, Rocklin, Calif., gelidium), and 10 μl subcultured 18 h prior to infection. HUVEC were seeded in 24-well plates (Sigma-Aldrich, St. Louis, Mo., CLS3524) that had been coated with Attachment Factor (Life Technologies, Carlsbad, Calif., S006100) for 30 min at 37° C./5% CO2. HUVEC were plated at a density of 1.5×10^5 cells/well. For infection, S. pyogenes were harvested by centrifugation, 37° C./3 min/10,000 RPM, washed, and resuspended in fresh 0.85% saline (NaCl, Thermo-Fisher Scientific, S-271-500). Bacteria were diluted to 4.8×10^8 colony forming units (CFU)/ml and incubated at 37° C./5% CO2 with HUVEC at multiplicity of infection and for duration indicated in each figure or table. CFU of 90-226 S. pyogenes had been determined from a growth curve, fitting an OD600 of 0.5 to 4.8×10^8 CFU/ml. After infection, each well was washed three times with sterile 1× phosphate buffered saline (PBS, Life Technologies, 20012043) to remove unattached S. pyogenes. HUVEC were then incubated at 37° C., 5% CO2 for 45 min in 10% fetal bovine serum (FBS, Atlanta Biologicals, Flowery Branch, Ga., S111S0)/PBS containing 500 μg/ml gentamicin (Sigma-Aldrich, G1272). Following the incubation with gentamicin to remove extracellular bacteria, HUVEC were washed three times with PBS. Sterile distilled ice-cold water (Life Technologies, 15230-162) was added to each well for 5 min at room temperature (RT) to permeabilize the host cells. Serial dilutions of this bacteria-containing water were performed in saline, plated on THB/blood agar, and incubated for 18-20 h at 37° C. The following day, colonies were counted to determine CFU/ml recovered from invasion.
# [2] = In vivo toxicity, single intraperitoneal injection; settings: dissolved in polyethylene glycol, C57BL/6 mice
# Procedure: Specific pharmacologic inhibition of CDC42 has been examined to determine whether it is sufficient in the inhibition of host cell invasion by S. aureus. Host cell cytotoxicity was undetectable below 30 μM in vitro. The highest concentration of ML 141 introduced in vivo without detectable toxicity was 100 mg/kg body weight [BW]. The compound was dissolved in polyethylene glycol and administered as a single intraperitoneal injection to C57BL/6 mice.
structure (smiles),measurement,setting,value
"COc1ccc(C2CC(c3ccccc3)=NN2c2ccc(S(N)(=O)=O)cc2)cc1 (centres unmarked) [ML 141, 4-[3-(4-methoxyphenyl)-5-phenyl-3,4-dihydropyrazol-2-yl]benzenesulfonamide]",Cytotoxicity (in words),"[1]; 10 μM, 18-20 h, Tables 4 and 5",not detected
same,"Mean fluorescence intensity (×10^4 ± SEM), Compound (10 μM)",[1]; HUVEC pretreated 18-20 h,2.1 ± 0.3 ×10^4
same,"Mean fluorescence intensity (×10^3 ± SEM), Compound (10 μM)",RAW 264.7 cells,2.5 ± 0.3 ×10^3
same,reversibility of inhibition of S. pyogenes invasion,"Streptococcus pyogenes; ML 141 10 μM 1 h, washout 60 min, MOI 30, 2 h",reversible
same,% Inhibition (± SEM),"Streptococcus pyogenes; ML 141 10 μM added 1 hour post-infection, 2 h, MOI 0.25",No difference
same,% Inhibition (± SEM),"Streptococcus pyogenes; ML 141 10 μM added at time of infection, 2 h, MOI 30",No difference
same,inhibition at 10 µM,"Streptococcus pyogenes; 2 h, read-out: % Inhibition (± SEM), ML 141 10 μM added at time of infection, 2 h, MOI 0.25 (first line)",81 ± 7%
same,inhibition at 10 µM,"Streptococcus pyogenes; 2 h, read-out: % Inhibition (± SEM), ML 141 10 μM added at time of infection, 2 h, MOI 0.25 (second line)",62 ± 10%
same,inhibition at 10 µM,"Streptococcus pyogenes; read-out: % Inhibition (± SEM), ML 141 10 μM added 18-20 hours pre-infection, duration of infection 2 h, MOI 30",96 ± 4%
same,inhibition at 10 µM,"Streptococcus pyogenes; read-out: % Inhibition (± SEM), ML 141 10 μM added 1 hour post-infection, 2 h, MOI 0.0025",92 ± 6%
same,highest concentration introduced in vivo without detectable toxicity,[2],100 mg/kg body weight
